# Measured values taken from article PMC13576449, “Small-Molecule Activators of PRMT1: Discovery, SAR Analyses, and Proapoptotic Effects in Pancreatic Cancer Cells” (Journal of Medicinal Chemistry, 2026).
# Target: T1, FLAG-tagged PRMT6 (Homo sapiens, UniProt Q96LA8)
# T1 construct: The complete ORFs of human PRMT3 and PRMT6 were inserted; made in house; host or cells: Sf9 insect cells (baculovirus)
# Assay: Fluorescence-based in vitro PRMT assay (F-PRMT assay), PRMT6
# Format: biochemical
# Conditions: Table S2; 100 µM compound, vs solvent control = 100%, n=3; racemates used
# Text: To evaluate the effects of the selected candidate molecules on the catalytic activity of type I enzymes, we employed a quantitative fluorescence-based in vitro PRMT activity (F-PRMT) assay using recombinant FLAG-tagged PRMT proteins expressed and affinity-purified from baculovirus-infected Sf9 cells (SI Figure S1, SI Figure S2A).
# Human cell lines (PaTu8988T, PANC-1) were obtained from ATCC (American Type Culture Collection) and cultured in DMEM supplemented with 10% fetal calf serum (FCS, Gibco/BRL), 1% penicillin/streptomycin at 37 °C and 5% CO2. […] For PRMT1 inhibition, cells were treated with type I PRMT inhibitor MS023 hydrochloride (Biomol). For induction of genotoxic stress, cells were treated with gemcitabine (LC Laboratories). […] The following plasmids were used: pFASTBAC-FLAG-rat PRMT1, pFASTBAC-FLAG-mouse PRMT4, and pGEX-GAR. The complete ORFs of human PRMT3 and PRMT6 were inserted into the pFASTBAC HT-3xFLAG B vector via BamHI/HindIII and BamHI/XhoI sites, respectively.
# For PRMT protein expression in insect cells, recombinant baculovirus (bacmid) was generated using the Bac-to-Bac baculovirus system (Invitrogen). Sf9 cells were transfected with bacmid DNA using X-tremeGENE HP DNA transfection reagent (Sigma-Aldrich) according to the manufacturer's instructions. After 3–5 days, supernatants were collected, filtered, and used to infect Sf9 cells to amplify the virus. After 2 rounds of virus amplification and estimation of the final P3 virus titer, the P3 virus (2–5 μL/10^6 cells) was applied for large-scale infection of 200 × 10^6 Sf9 cells in suspension culture at a density of 1 × 10^6 cells/mL. Cells were harvested 5–6 days post-infection by centrifugation at 500 g for 5 min at room temperature. Protein purification from baculovirus-infected Sf9 cells was performed as previously described. , Cells were lysed in BC buffer (20 mM HEPES pH 7.9, 250 mM NaCl, 10% (v/v) glycerin, 0.4 mM EDTA, 1 mM DTT) containing a protease inhibitor cocktail (Roche) by 3 freeze-thaw cycles. After centrifugation at 11,000 rpm (Sorval SS34 rotor) and 4 °C for 1 h, the supernatant (whole cell protein extract) was incubated with anti-FLAG M2 Affinity Gel (Cytiva) at 4 °C and under agitation for 4 h. Subsequently, beads were washed in BC buffer containing various NaCl concentrations (once in BC with 1 M NaCl, twice in BC with 500 mM NaCl, twice in BC with 250 mM NaCl and twice in BC with 100 mM NaCl). FLAG-tagged proteins were either maintained bead-bound as a 50% (v/v) slurry in BC buffer with 100 mM NaCl and stored at −80 °C or were eluted in the appropriate elution buffer (depending on the subsequent assay) containing 0.25 mg/mL 3xFLAG peptides (Sigma-Aldrich) at 4 °C for 30–45 min. To remove the FLAG-peptides from the eluate, dialysis was performed in elution buffer containing 10% (v/v) glycerol at 4 °C for 4–6 h using Slide-A-Lyzer Dialysis Devices (Thermo Fisher Scientific) according to the manufacturer’s recommendations.
# In the first step, the fluorogenic substrate Nα-Benzoyl-L-arginine-7-amido-4-methylcoumarin (Bz-Arg-AMC, Sigma-Aldrich) undergoes methylation by PRMTs upon the addition of the cofactor SAM. In the second reaction step, trypsin cleaves the nonmethylated substrate, leading to the generation of the 7-amino-4-methylcoumarin product, which can be quantified by subsequent fluorescence measurement (excitation: 355 nm, emission: 460 nm). The first reaction was conducted with bead-bound PRMTs at a total volume of 100 μL. Each condition was performed as a technical triplicate to determine the mean and the standard deviation. […] For the negative controls, SAM was substituted with assay buffer. The incubation was continued at 37 °C and under agitation (1,000 rpm) for a duration of 2 h.
# T1 sequence (Q96LA8 whole entry): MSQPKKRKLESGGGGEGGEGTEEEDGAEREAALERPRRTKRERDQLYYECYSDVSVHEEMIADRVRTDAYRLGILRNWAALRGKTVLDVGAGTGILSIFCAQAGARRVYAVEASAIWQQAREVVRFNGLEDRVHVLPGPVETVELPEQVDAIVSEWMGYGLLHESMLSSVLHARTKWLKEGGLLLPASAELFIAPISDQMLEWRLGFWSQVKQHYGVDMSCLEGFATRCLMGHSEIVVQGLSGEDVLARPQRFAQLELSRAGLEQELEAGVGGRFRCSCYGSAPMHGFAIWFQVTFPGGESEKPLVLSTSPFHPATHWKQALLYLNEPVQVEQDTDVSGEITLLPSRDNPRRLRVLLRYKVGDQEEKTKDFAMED
row,SMILES,Experimental result (PRMT6)
1,CN1CCC[C@H]1CCn1ccnc1-c1ccc2nonc2c1 (racemic) [Compound K002FT007],"n.e. (did not significantly affect the catalytic activity of the intended PRMT (less than ±6% change or not significant p-value), are marked with n.e. (no effect))"
2,Cc1nc(N)cc(NC[C@H]2CC(=O)N(c3ccccc3)C2)n1 (racemic) [Compound K002FT010],"n.e. (did not significantly affect the catalytic activity of the intended PRMT (less than ±6% change or not significant p-value), are marked with n.e. (no effect))"
3,CN[C@H](CO)c1cc(OC)ccc1Br (racemic) [Compound K002FT016],"n.e. (did not significantly affect the catalytic activity of the intended PRMT (less than ±6% change or not significant p-value), are marked with n.e. (no effect))"
4,COc1ccc(Cl)cc1NC(=O)[C@@H]1CCCN1 (racemic) [Compound K002JS001],"n.e. (did not significantly affect the catalytic activity of the intended PRMT (less than ±6% change or not significant p-value), are marked with n.e. (no effect))"
5,Nc1nccc(N2CC[C@@]3(CCCN(C4CCOCC4)C3=O)C2)n1 (racemic) [Compound K002JS009],"n.e. (did not significantly affect the catalytic activity of the intended PRMT (less than ±6% change or not significant p-value), are marked with n.e. (no effect))"
6,CN1CC[C@@](O)(CNCCc2cccc(OC(F)(F)F)c2)C1 (racemic) [Compound K600JK012],"n.e. (did not significantly affect the catalytic activity of the intended PRMT (less than ±6% change or not significant p-value), are marked with n.e. (no effect))"
7,CNCCNC(=O)NC[C@@]12CNC[C@@]1(C(F)(F)F)C2 (racemic) [Compound K600JK013],"n.e. (did not significantly affect the catalytic activity of the intended PRMT (less than ±6% change or not significant p-value), are marked with n.e. (no effect))"
8,COc1cc(CNCCNCCO)cc(Cl)c1OC(C)C [Compound K002FT001],"n.e. (did not significantly affect the catalytic activity of the intended PRMT (less than ±6% change or not significant p-value), are marked with n.e. (no effect))"
9,COCC1(CNCc2nnc([C@H]3C[C@H](N)C3)n2C2CC2)CC1 [Compound K002FT002],"n.e. (did not significantly affect the catalytic activity of the intended PRMT (less than ±6% change or not significant p-value), are marked with n.e. (no effect))"
10,CCNc1nc(C)cc(NCCNC(=O)Cc2ccc(F)cc2)n1 [Compound K002FT003],"n.e. (did not significantly affect the catalytic activity of the intended PRMT (less than ±6% change or not significant p-value), are marked with n.e. (no effect))"
11,Cc1cccc(-n2ncc3c(NCCN(C)C)ncnc32)c1 [Compound K002FT004],"n.e. (did not significantly affect the catalytic activity of the intended PRMT (less than ±6% change or not significant p-value), are marked with n.e. (no effect))"
12,CN(C)CCNc1ncnc2cc(-c3ccc(F)cc3)sc12 [Compound K002FT005],"n.e. (did not significantly affect the catalytic activity of the intended PRMT (less than ±6% change or not significant p-value), are marked with n.e. (no effect))"
13,COc1cc(CNCCO)ccc1Oc1nnnn1-c1ccccc1 [Compound K002FT006],"n.e. (did not significantly affect the catalytic activity of the intended PRMT (less than ±6% change or not significant p-value), are marked with n.e. (no effect))"
14,CNCC1CCN(Cc2cc(F)ccc2C)CC1 [Compound K002FT009],"n.e. (did not significantly affect the catalytic activity of the intended PRMT (less than ±6% change or not significant p-value), are marked with n.e. (no effect))"
15,COc1cc(CNCCN(C)C)ccc1OCc1nc(C)no1 [Compound K002FT011],"n.e. (did not significantly affect the catalytic activity of the intended PRMT (less than ±6% change or not significant p-value), are marked with n.e. (no effect))"
16,Cc1cc(NC(=O)CN(C)C)cc(N2CCN(C(C)C)CC2)c1 [Compound K002FT012],"n.e. (did not significantly affect the catalytic activity of the intended PRMT (less than ±6% change or not significant p-value), are marked with n.e. (no effect))"
17,Clc1ccc(N2CCN(c3ncnc4[nH]ccc34)CC2)nc1 [Compound K002FT013],"n.e. (did not significantly affect the catalytic activity of the intended PRMT (less than ±6% change or not significant p-value), are marked with n.e. (no effect))"
18,CCc1c(-c2cccc3ccccc23)nc2ccc(NC(=O)CN)cn12 [Compound K002FT014],"n.e. (did not significantly affect the catalytic activity of the intended PRMT (less than ±6% change or not significant p-value), are marked with n.e. (no effect))"
19,c1ccc2oc(C3CCN(Cc4c[nH]cn4)CC3)nc2c1 [Compound K002FT015],"n.e. (did not significantly affect the catalytic activity of the intended PRMT (less than ±6% change or not significant p-value), are marked with n.e. (no effect))"
20,CN(C)CC(=O)Nc1cnccc1N1CCOCC1 [Compound K002FT018],"n.e. (did not significantly affect the catalytic activity of the intended PRMT (less than ±6% change or not significant p-value), are marked with n.e. (no effect))"
21,CNCC(=O)NCCc1ccc(OC)c(OC)c1 [Compound K002JS002],"n.e. (did not significantly affect the catalytic activity of the intended PRMT (less than ±6% change or not significant p-value), are marked with n.e. (no effect))"
22,COc1cccc(NC(=O)CNCCC(N)=O)c1 [Compound K002JS005],"n.e. (did not significantly affect the catalytic activity of the intended PRMT (less than ±6% change or not significant p-value), are marked with n.e. (no effect))"
23,COc1cc(CN2CCC(CN)C2)cc(Cl)c1OC (centres unmarked) [Compound K002JS010],"n.e. (did not significantly affect the catalytic activity of the intended PRMT (less than ±6% change or not significant p-value), are marked with n.e. (no effect))"
24,NCCCCNCc1cc(Br)cs1 [Compound K002JS012],"n.e. (did not significantly affect the catalytic activity of the intended PRMT (less than ±6% change or not significant p-value), are marked with n.e. (no effect))"
25,O=[N+]([O-])c1ccc(Sc2n[nH]c(Cc3ccccc3)n2)nc1 [Compound K002JS015],"n.e. (did not significantly affect the catalytic activity of the intended PRMT (less than ±6% change or not significant p-value), are marked with n.e. (no effect))"
26,OC1(c2c[nH]nn2)CCN(CCOc2ccc(Cl)cc2)C1 (centres unmarked) [Compound K002JS017],"n.e. (did not significantly affect the catalytic activity of the intended PRMT (less than ±6% change or not significant p-value), are marked with n.e. (no effect))"
27,COc1cc(CNC(C)C)ccc1OCc1nc(C)no1 [Compound K002JS018],"n.e. (did not significantly affect the catalytic activity of the intended PRMT (less than ±6% change or not significant p-value), are marked with n.e. (no effect))"
28,CCN(CCCC(=O)Nc1cccc(C)c1)C1CNC1 [Compound K600JK005],"n.e. (did not significantly affect the catalytic activity of the intended PRMT (less than ±6% change or not significant p-value), are marked with n.e. (no effect))"

# Same assay, conditions: Table S2; 100 µM compound; mean % difference vs solvent control (100%), n=3
row,Efficacy ±∆% (PRMT6),SMILES
1,-10%,Cc1cc(NCCc2nc(C)cc(=O)[nH]2)nc(N2CCCCC2)n1 [Compound K002FT008]
